Source: patent US10183020B2 (AstraZeneca AB, priority 2014, dated 2019)

What was measured:
[1] = Solubility of AZD9291 in simulated gastric fluid, human intestinal fluid and at intestinal pH
Source text: (§1) In such cases, where the solubility of a drug varies with pH, and particularly when the solubility is highest at acidic pH, there is a problem that the drug may precipitate from solution as it passes through the gastrointestinal tract. Drugs need to be in solution in order to be absorbed, so such precipitation can lead to variability in the extent and/or rate of absorption of the drug. […] In principle, the dose administered to a patient could be increased to account for potentially poor absorption, but this approach introduces a risk that too much of the drug may enter the patient's system in some cases—which may be a safety risk and/or increase the risk/severity of side-effects. […] Accordingly, there remained a problem to provide an improved way of dosing the Agent to patients that should reduce/avoid the risk of and/or severity of the above-mentioned problems of inter-patient variability of absorption and/or inter-dose variability of absorption.

[2] = Permeability; format: in vitro ADME
Source text: as §1

[3] = test system: advanced EGFRm T790M+ lung adenocarcinoma; assay: Phase 1 clinical trial; format: in vivo, human; conditions: a number of patients; Agent in the form of the mesylate salt
Source text: Further details of this ‘blend in capsule’ formulation are described hereinafter as ‘Comparative Example 1’.

[4] = test system: EGFRm+ and T790M mutant tumour xenograft and transgenic models; conditions: doses as low as 5 mg/kg/day; cited from earlier work
[5] = test system: EGFRm+ sensitising and the T790M resistance mutant forms of EGFR; conditions: cited from earlier work
[6] = test system: EGFRm+ and T790M mutant cell lines; conditions: in vitro; cited from earlier work
[7] = test system: wild-type EGFR lines; conditions: in vitro, compared with mutant cell lines; cited from earlier work
[8] = Stability of solution (precipitation); format: physicochemical; conditions: solution once formed

Molecule | pH dependent solubility [1] | permeability [2] | clinical response [3] | tumor regression [4] | inhibition of EGFRm+ sensitising and T790M resistance mutant forms of EGFR [5] | inhibition of EGFR signaling pathways and cellular growth [6] | activity against wild-type EGFR lines [7] | solubility at intestinal pH compared with AZD9291 in free base form ([1]; intestinal pH) | period over which solution is stable without precipitation [8]
C=CC(=O)Nc1cc(Nc2nccc(-c3cn(C)c4ccccc34)n2)c(OC)cc1N(C)CCN(C)C [AZD9291, N-(2-{2-dimethylaminoethyl-methylamino}-4-methoxy-5-{[4-(1-methylindol-3-yl)pyrimidin-2-yl]amino}phenyl)prop-2-enamide] | significant pH dependent solubility | moderate permeability | partial responses | profound and sustained tumor regression | potent inhibitor | potently inhibits | much less activity |  | 
AZD9291 mesylate |  |  |  |  |  |  |  | significantly higher | at least 24 hours
